Measured values taken from patent US10201559B2, “Compositions of selenoorganic compounds and methods of use thereof” (Alltech, Inc., priority 2014, dated 2019).

Columns and labels:
AML-12 cells [1] = test: Quantitative analysis of mitochondrial potential in AML-12 cells; assay type: cell-based, mouse; conditions: 150 ppb (of each compound), 6 and 24 hr
Procedure: For AML-12 liver cells, cells were amplified in 10% FBS Dulbecco's modified Eagle's medium and Ham's F12 medium (1:1) (DMEM/F12) media supplemented with 1× Insulin/Transferin/Selenium (ITS, Sigma). Then equal number of cells (1×10^4 cells/well) were seeded on Corning 96-well clear-bottom and dark-wall cell culture plates (VWR, Radnor, Pa.), cultured in ITS-free 10% FBS DMEM/F12 media for 24 hr., and then subjected to the treatments of various compounds or combination of compounds for 6, 24, and 48 hr. Mitochondrial potential in living cells was determined by quantitative analysis of fluorescence intensities using the Mitotracker orange dye as described above. In addition, the above treated cells were also incubated with Hoechst 33342 dye (Invitrogen, Grand Island, N.Y.) to stain cell nuclei according to the Manufacturer's protocol. The fluorescent intensities of stained cell nuclei by Hoechst 33342 dye were also determined by the fluorescence microplate reader. The mitochondrial potential per cell in living cells was obtained by normalizing the fluorescence intensities of Mitotracker orange dye to the fluorescence intensities of Hoechst 33342 dye in each well. Eight samples per each treatment were examined for the above analysis and data are presented as mean±sem of eight samples.

AML-12 cells [2] = test: Cell viability assay, AML-12; assay type: cell-based, mouse; conditions: 48 hr
Procedure: Cell viability in cultured cells was determined using Promega's CellTiter96® AQueous One Solution Cell Proliferation Assay kits, according to the Manufacturer's protocol. In brief, equal number of C2C12 (1×10^4 cells/well), AML-12 (1×10^4 cells/well) and IMR-32 (2×10^4 cells/well) were seeded on 96-well clear plates (VWR) and treated with vehicle or compounds for 24, […] and/or 72 hr. Then, cultured cells were incubated with AQueous One solution (100 ul/per well) at 37° C. for 1 hr, and the absorbance of OD490 nm in each sample was determined by the Bio-Tek microplate reader. Cell viability in culture cells were determined by the subtraction of OD490 nm in cultured cells with the OD490 nm in plain culture media (without seeding of cells). Eight samples per each treatment were examined for the above analysis. Data are presented as Mean±sem of eight samples.

PSEN = test: Real-time RT-PCR, PSEN in IMR-32 cells; assay type: cell-based, human; conditions: individual compound
Procedure: (§1) Human IMR-32 cells were seeded on gelatinized 6-well (6.5×10^5 cells/well) or 24-well (1.3×10^5 cells/well) plates, while mouse liver AML-12 cells were cultured on uncoated 6-well (3.33×10^5 cells/well) or 24-well (6.7×10^4 cells/well) plates. Cells were treated with vehicle (control) or various compounds for 6, 24 or 48 hr. Total RNA from these cells was using Trizol (Invitrogen) according to the Manufacturer's protocol, and then incubated with DNase I to remove any potential contaminated genomic DNA. Then RNA samples were subjected to real-time PCR analysis using the Applied-Bioscience's RT kit and predesigned Taqman probes (Invitrogen), as described previously (Lan et al EMBO J 2003). Three to six samples were analyzed in each treatment group. Data were normalized by Actin B (Actb) or Glyceraldehyde Phosphate Dehydrogenase (Gapdh) levels in each sample, and are presented as mean±sem of 3-6 samples.

Nicastrin [3] = test: Real-time RT-PCR, Nicastrin in IMR-32 cells; assay type: cell-based, human
Procedure: as §1

Gsk3b = test: Real-time RT-PCR, Gsk3b in IMR-32 cells; assay type: cell-based, human
Procedure: as §1

Nicastrin [4] = test: Western blot, Nicastrin in IMR-32 cells; assay type: cell-based, human; conditions: 150 ppb, 24 hr
Procedure: (§2) IMR-32 and AML12 cells were seeded on 6-well plates, and then treated with vehicle and various compounds for 6 and 24 hr, as described above. After treatments, cells were rinsed with ice-cold PBS, and lysed in the ice-cold RIPA buffer containing complete proteinase and phosphotase inhibitors (Themo-Fisher Scientific, Waltham, Mass.) on ice for 30 min. Cell lysates were collected using a cell scraper and transfer pipette, and then centrifuged at 12000 g for 30 min at 4° C. to remove the DNA pellet and obtain the protein extract. Protein levels in the supernatant of these cell lysates were determined using the Pierce Micro-BCA protein assay kit (Themo Scientific-Piece Biotechnology, Rockford, Ill.) according to the manufacturer's protocol.
(§3) For Western blot analysis, five micrograms of total proteins from vehicle- and compound(s)-treated cells were subjected to SDS-PAGE gel separation, and then transferred to PVDF membranes, as described previously (Reddy, Liu et al. 2008 Science). Membranes were blocked in a phosphate-buffered saline (PBS) containing 5% (w/v) of bovine serum albumin (Sigma, St. Louis, Mo.), and incubated with specific primary antibodies followed by the incubation with HRP-conjugated anti-mouse or anti-rabbit secondary antibodies (1:5000 dilution, Cell Signaling Inc.). All primary antibodies except G6PC (Santa Cruz), Actb (Li-COR, Lincoln, Nebr.), Elf2bε and pElf2bε (Abcam, Cambridge, Mass.) were purchased from Cell Signaling Inc. Positive signals on the membrane blots were detected using the Amersham's enhanced chemiluminescence Western Blotting Prime Detection reagents (GE healthcare Lifescience, Pittsburgh, Pa.). Images of these luminescence signals on the membrane blots were captured using the LI-COR Odyssey Fc Image system (Lincoln, Nebr.). […] Protein band densities in the Western blots were determined using the Li-COR Image studio software or NIH ImageJ software, and then normalized by Actb level in each sample. […]

pTau S400/T403/S404 = test: Western blot, pTau S400/T403/S404 in IMR-32 cells; assay type: cell-based, human; conditions: 150 ppb, 24 hr
Procedure: as §2, §3

total Tau = test: Western blot, total Tau in IMR-32 cells; assay type: cell-based, human; conditions: 150 ppb, 24 hr
Procedure: as §2, §3

pFOXO4 T28 = test: Western blot, pFOXO4 T28 in IMR-32 cells; assay type: cell-based, human; conditions: individual compound, 150 ppb
Procedure: as §2
For Western blot analysis, five micrograms of total proteins from vehicle- and compound(s)-treated cells were subjected to SDS-PAGE gel separation, and then transferred to PVDF membranes, as described previously (Reddy, Liu et al. 2008 Science). Membranes were blocked in a phosphate-buffered saline (PBS) containing 5% (w/v) of bovine serum albumin (Sigma, St. Louis, Mo.), and incubated with specific primary antibodies followed by the incubation with HRP-conjugated anti-mouse or anti-rabbit secondary antibodies (1:5000 dilution, Cell Signaling Inc.). All primary antibodies except G6PC (Santa Cruz), Actb (Li-COR, Lincoln, Nebr.), Elf2bε and pElf2bε (Abcam, Cambridge, Mass.) were purchased from Cell Signaling Inc. Positive signals on the membrane blots were detected using the Amersham's enhanced chemiluminescence Western Blotting Prime Detection reagents (GE healthcare Lifescience, Pittsburgh, Pa.). Images of these luminescence signals on the membrane blots were captured using the LI-COR Odyssey Fc Image system (Lincoln, Nebr.). The same membrane blot was striped and re-blotted with another antibody as described in the GE WB ECL-prime-detection protocol (GE healthcare Lifescience, Pittsburgh, Pa.). Protein band densities in the Western blots were determined using the Li-COR Image studio software or NIH ImageJ software, and then normalized by Actb level in each sample. Data are presented as mean±sem of three samples per each group.

total FOXO = test: Western blot, total FOXO in IMR-32 cells; assay type: cell-based, human; conditions: 150 ppb (of each compound)
Procedure: as §2, §3

pAKT = test: Western blot, pAKT in IMR-32 cells; assay type: cell-based, human; conditions: 150 ppb
Procedure: as §2, §3

pGSk3a = test: Western blot, pGSk3a in AML-12 cells; assay type: cell-based, mouse; conditions: individual compounds, 6 or 24 hr
Procedure: as §2, §3

pGSK3b = test: Western blot, pGSK3b in AML-12 cells; assay type: cell-based, mouse; conditions: individual compounds, 6 or 24 hr
Procedure: as §2, §3

Row | Compound | MT potential (AML-12 cells [1]) | cell viability (OD490 nm) (AML-12 cells [2]) | PSEN mRNA expression (PSEN; 6 hr) | PSEN mRNA expression (PSEN; 24 hr) | Nicastrin mRNA expression (Nicastrin [3]; 6 hr) | Nicastrin mRNA expression (Nicastrin [3]; 24 hr) | Gsk3b mRNA expression (Gsk3b; 6 hr) | Gsk3b mRNA expression (Gsk3b; 24 hr) | Nicastrin protein level (Nicastrin [4]) | phosphorylation of Tau at S400/T403/S404 (pTau S400/T403/S404) | total Tau protein level (total Tau) | decrease of pFoxo4 (pFOXO4 T28) levels (pFOXO4 T28; 6 hr) | decrease of pFoxo4 (pFOXO4 T28) levels (pFOXO4 T28; 24 hr) | total FOXO levels (total FOXO) | pAKT protein levels (pAKT) | increased phosphorylation of Gsk3a (pGSk3a) | increased phosphorylation of Gsk3b (pGSK3b)
1 | C[Se]C[C@H]1O[C@@H](n2cnc3c(N)ncnc32)C(O)C1O (stereo in doubt) [compound C, 5′-Methylselenoadenosine] | did not significantly affect MT potential | no toxic effects | significantly reduced | significantly reduced | trend towards reduced Nicastrin mRNA expression | significant decrease in Nicastrin mRNA expression | significantly decreased | trend of decreased Gsk3b mRNA expression | significant reduction | significantly inhibited the phosphorylation of Tau at S400/T403/S404 | did not affect total Tau protein level | statistically significant | statistically significant | neither the CDE combination nor the individual C, D or E treatments brought about any change | not visibly decreased | did not observed the increased phosphorylation | did not observed the increased phosphorylation
2 | Nc1ncnc2c1ncn2[C@@H]1O[C@H](C[Se]CC[C@@H](N)C(=O)O)C(O)C1O (stereo partly shown) [compound D, 5′-Selenoadenosyl homocysteine] | did not significantly affect MT potential | no toxic effects |  | did not inhibit, but instead stimulated |  | did not inhibit, but instead stimulated | did not significantly inhibit Gsk3b mRNA expression | significant increase of Gsk3b mRNA expression | trend towards reduced Nicastrin protein expression | had no effect on Tau phosphorylation at all tested serine/threonine residues | had no effect | statistically significant |  | neither the CDE combination nor the individual C, D or E treatments brought about any change | not visibly decreased | did not observed the increased phosphorylation | did not observed the increased phosphorylation
3 | C[Se]CC(NC(=O)CCC(N)C(=O)O)C(=O)O (stereo not shown) [compound E, gamma-glutamyl-methylseleno-cysteine] | did not significantly affect MT potential | no toxic effects |  | did not inhibit, but instead stimulated |  | did not inhibit, but instead stimulated | did not significantly inhibit Gsk3b mRNA expression | significant increase of Gsk3b mRNA expression | trend towards reduced Nicastrin protein expression | significantly down-regulated | significantly down-regulated | statistically significant | statistically significant | neither the CDE combination nor the individual C, D or E treatments brought about any change | not visibly decreased | did not observed the increased phosphorylation | did not observed the increased phosphorylation
